From ChEMBL document CHEMBL2346651, “Structure-activity relationship study of tachykinin peptides for the development of novel neurokinin-3 receptor selective agonists” (Bioorg Med Chem, 2013)
Residues, ends and D or L forms follow the SMILES beside them.

Legend:
[1] = target: T1, Substance-K receptor (Homo sapiens) (UniProt P21452); assay: Displacement of [125I]-NKA from NK2R (unknown origin) transfected in CHO cells at 10 uM by gamma counting analysis; assay type: cell-based
T1 sequence (whole entry): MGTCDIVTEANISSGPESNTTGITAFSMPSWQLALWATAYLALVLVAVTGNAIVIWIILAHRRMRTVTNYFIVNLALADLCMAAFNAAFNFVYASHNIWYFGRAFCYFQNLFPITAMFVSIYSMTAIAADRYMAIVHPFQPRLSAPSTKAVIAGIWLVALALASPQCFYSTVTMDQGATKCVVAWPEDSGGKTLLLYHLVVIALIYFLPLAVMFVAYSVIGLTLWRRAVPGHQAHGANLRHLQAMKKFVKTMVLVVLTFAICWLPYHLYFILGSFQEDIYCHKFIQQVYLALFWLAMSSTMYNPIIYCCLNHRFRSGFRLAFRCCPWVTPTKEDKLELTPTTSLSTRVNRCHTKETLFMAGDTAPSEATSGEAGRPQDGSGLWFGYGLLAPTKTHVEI

[2] = target: T2, Neuromedin-K receptor (Homo sapiens, UniProt P29371); assay: Displacement of ([125I]-His3, MePhe7)-NKB from NK3R (unknown origin) transfected in CHO cells by gamma counting analysis; assay type: cell-based
T2 sequence (P29371 whole entry): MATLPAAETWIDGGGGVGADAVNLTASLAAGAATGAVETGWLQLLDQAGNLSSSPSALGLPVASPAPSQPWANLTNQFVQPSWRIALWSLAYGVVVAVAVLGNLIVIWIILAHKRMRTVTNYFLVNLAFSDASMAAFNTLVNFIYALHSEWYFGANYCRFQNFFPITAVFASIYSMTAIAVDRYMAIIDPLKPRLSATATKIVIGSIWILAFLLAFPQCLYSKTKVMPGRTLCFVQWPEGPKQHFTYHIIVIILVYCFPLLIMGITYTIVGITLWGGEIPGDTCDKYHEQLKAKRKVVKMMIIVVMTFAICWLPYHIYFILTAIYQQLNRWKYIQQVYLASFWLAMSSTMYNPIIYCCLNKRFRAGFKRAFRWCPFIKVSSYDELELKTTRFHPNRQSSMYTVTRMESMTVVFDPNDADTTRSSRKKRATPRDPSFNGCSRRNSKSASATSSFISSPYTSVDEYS

[3] = target: Substance-P receptor (Homo sapiens) (UniProt P25103); assay: Displacement of [125I]-BH-SP from NK1R (unknown origin) transfected in CHO cells at 10 uM by gamma counting analysis; assay type: cell-based
[4] = target: T2, Neuromedin-K receptor; assay: Agonist activity at NK3R (unknown origin) transfected in CHO cells assessed as calcium influx […]; assay type: functional, cell-based

Chain of Substance-P receptor (Homo sapiens) (P25103 whole entry): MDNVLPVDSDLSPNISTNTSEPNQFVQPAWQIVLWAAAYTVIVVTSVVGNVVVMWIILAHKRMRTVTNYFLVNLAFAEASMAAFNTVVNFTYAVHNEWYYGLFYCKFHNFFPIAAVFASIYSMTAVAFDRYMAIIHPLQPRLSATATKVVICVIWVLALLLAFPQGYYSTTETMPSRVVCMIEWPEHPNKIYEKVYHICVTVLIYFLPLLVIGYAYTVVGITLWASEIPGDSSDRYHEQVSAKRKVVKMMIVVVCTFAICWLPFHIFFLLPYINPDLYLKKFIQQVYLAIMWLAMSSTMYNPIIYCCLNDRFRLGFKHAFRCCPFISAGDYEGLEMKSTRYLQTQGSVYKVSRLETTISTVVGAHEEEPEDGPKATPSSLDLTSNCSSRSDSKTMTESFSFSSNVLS

Row | inhibition [1] | IC50 [2] | inhibition [3] | EC50 [4] | Molecule
1 | < 10% | 54 nM | 87% | 0.15 nM | CSCC[C@H](NC(=O)[C@H](CC(C)C)NC(=O)CNC(=O)[C@H](Cc1ccccc1)N(C)C(=O)[C@H](Cc1ccccc1)NC(=O)[C@H](CC(=O)O)NC(=O)[C@H](CC(N)=O)NC(=O)[C@@H]1CCCN1C(=O)[C@H](CC(=O)O)NC(=O)[C@H](C)NC(=O)[C@@H]1CCC(=O)N1)C(N)=O (HELM PEPTIDE1{[Glp].A.D.P.N.D.F.[meF].G.L.M.[am]}$$$$V2.0)
2 | 47% | 5.9 nM | < 10% | 0.017 nM | CSCC[C@H](NC(=O)[C@H](CC(C)C)NC(=O)CNC(=O)[C@H](Cc1ccccc1)N(C)C(=O)[C@H](Cc1ccccc1)NC(=O)[C@H](Cc1cnc[nH]1)NC(=O)[C@H](CC(=O)O)NC(=O)[C@H](Cc1cnc[nH]1)NC(=O)[C@H](CCSC)NC(=O)[C@@H](N)CC(=O)O)C(N)=O (HELM PEPTIDE1{D.M.H.D.H.F.[meF].G.L.M.[am]}$$$$V2.0)
3 | 35% | 4 nM | < 10% | 0.06 nM | CC[C@H](C)[C@H](NC(=O)[C@H](CC(=O)O)NC(=O)[C@H](Cc1cnc[nH]1)NC(=O)[C@H](CCSC)NC(=O)[C@@H](N)CC(=O)O)C(=O)N[C@@H](Cc1ccccc1)C(=O)N(C)[C@@H](Cc1ccccc1)C(=O)NCC(=O)N[C@@H](CC(C)C)C(=O)N[C@@H](CCSC)C(N)=O (HELM PEPTIDE1{D.M.H.D.I.F.[meF].G.L.M.[am]}$$$$V2.0)
4 | 19% | 4.3 nM | < 10% | 0.046 nM | CSCC[C@H](NC(=O)[C@H](CC(C)C)NC(=O)CNC(=O)[C@H](Cc1ccccc1)N(C)C(=O)[C@H](Cc1ccccc1)NC(=O)[C@@H](NC(=O)[C@H](CC(=O)O)NC(=O)[C@H](Cc1cnc[nH]1)NC(=O)[C@H](CCSC)NC(=O)[C@@H](N)CC(=O)O)[C@@H](C)O)C(N)=O (HELM PEPTIDE1{D.M.H.D.T.F.[meF].G.L.M.[am]}$$$$V2.0)
5 | 29% | 1.5 nM | < 10% | 0.065 nM | CSCC[C@H](NC(=O)[C@H](CC(C)C)NC(=O)CNC(=O)[C@H](Cc1ccccc1)N(C)C(=O)[C@H](Cc1ccccc1)NC(=O)[C@@H](NC(=O)[C@H](CC(=O)O)NC(=O)[C@H](Cc1cnc[nH]1)NC(=O)[C@H](CCSC)NC(=O)[C@@H](N)CC(=O)O)C(C)C)C(N)=O (HELM PEPTIDE1{D.M.H.D.V.F.[meF].G.L.M.[am]}$$$$V2.0)
6 | < 10% | 81 nM | < 10% | 0.11 nM | CSCC[C@H](NC(=O)[C@H](CC(C)C)NC(=O)CNC(=O)[C@H](Cc1ccccc1)N(C)C(=O)[C@H](Cc1ccccc1)NC(=O)[C@H](CC(=O)O)NC(=O)[C@H](CC(=O)O)NC(=O)CNC(=O)[C@@H](NC(=O)[C@@H](N)CC(=O)O)[C@@H](C)O)C(N)=O (HELM PEPTIDE1{D.T.G.D.D.F.[meF].G.L.M.[am]}$$$$V2.0)
7 | < 10% | 17 nM | < 10% | 0.13 nM | CSCC[C@H](NC(=O)[C@H](CC(C)C)NC(=O)CNC(=O)[C@H](Cc1ccccc1)N(C)C(=O)[C@H](Cc1ccccc1)NC(=O)[C@H](CC(=O)O)NC(=O)[C@H](CC(N)=O)NC(=O)[C@@H]1CCCN1C(=O)[C@H](CO)NC(=O)[C@@H]1CCCN1C(=O)[C@@H]1CCC(=O)N1)C(N)=O (HELM PEPTIDE1{[Glp].P.S.P.N.D.F.[meF].G.L.M.[am]}$$$$V2.0)
8 | 26% | 7 nM | 48% | 0.071 nM | CSCC[C@H](NC(=O)[C@H](CC(C)C)NC(=O)CNC(=O)[C@H](Cc1ccccc1)N(C)C(=O)[C@H](Cc1ccccc1)NC(=O)[C@H](C)NC(=O)[C@H](CC(=O)O)NC(=O)[C@H](CCCCN)NC(=O)[C@H](CO)NC(=O)[C@@H]1CCCN1C(=O)[C@@H]1CCC(=O)N1)C(N)=O (HELM PEPTIDE1{[Glp].P.S.K.D.A.F.[meF].G.L.M.[am]}$$$$V2.0)
9 | 57% | 3 nM | < 10% | 0.013 nM | CSCC[C@H](NC(=O)[C@H](CC(C)C)NC(=O)CNC(=O)[C@H](Cc1ccccc1)N(C)C(=O)[C@H](Cc1ccccc1)NC(=O)[C@H](Cc1ccccc1)NC(=O)[C@H](CC(=O)O)NC(=O)[C@H](Cc1cnc[nH]1)NC(=O)[C@H](CCSC)NC(=O)[C@@H](N)CC(=O)O)C(N)=O (HELM PEPTIDE1{D.M.H.D.F.F.[meF].G.L.M.[am]}$$$$V2.0)
10 | 74% | 89 nM | 53% | 0.47 nM | H-DVPKSDDFVGLM-NH2
11 | 56% | 35 nM | 91% | 0.0054 nM | CC[C@H](C)[C@H](NC(=O)[C@H](Cc1ccccc1)NC(=O)[C@H](CC(=O)O)NC(=O)[C@H](CC(=O)O)NC(=O)[C@H](CCCCN)NC(=O)[C@H](CO)NC(=O)[C@@H]1CCCN1C(=O)[C@@H]1CCC(=O)N1)C(=O)NCC(=O)N[C@@H](CC(C)C)C(=O)N[C@@H](CCSC)C(N)=O (HELM PEPTIDE1{[Glp].P.S.K.D.D.F.I.G.L.M.[am]}$$$$V2.0)
12 | 22% | 13 nM | < 10% | 0.036 nM | CSCC[C@H](NC(=O)[C@H](CC(C)C)NC(=O)CNC(=O)[C@H](Cc1ccccc1)N(C)C(=O)[C@H](Cc1ccccc1)NC(=O)CNC(=O)[C@H](CC(=O)O)NC(=O)[C@H](Cc1cnc[nH]1)NC(=O)[C@H](CCSC)NC(=O)[C@@H](N)CC(=O)O)C(N)=O (HELM PEPTIDE1{D.M.H.D.G.F.[meF].G.L.M.[am]}$$$$V2.0)
13 | 35% | 11 nM | 40% | 0.026 nM | CSCC[C@H](NC(=O)[C@H](CC(C)C)NC(=O)CNC(=O)[C@H](Cc1ccccc1)N(C)C(=O)[C@H](Cc1ccccc1)NC(=O)[C@H](CCCCN)NC(=O)[C@H](CC(=O)O)NC(=O)[C@H](Cc1cnc[nH]1)NC(=O)[C@H](CCSC)NC(=O)[C@@H](N)CC(=O)O)C(N)=O (HELM PEPTIDE1{D.M.H.D.K.F.[meF].G.L.M.[am]}$$$$V2.0)
14 | 21% | 4.6 nM | 24% | 0.043 nM | CSCC[C@H](NC(=O)[C@H](CC(C)C)NC(=O)CNC(=O)[C@H](Cc1ccccc1)N(C)C(=O)[C@H](Cc1ccccc1)NC(=O)[C@H](CCC(N)=O)NC(=O)[C@H](CC(=O)O)NC(=O)[C@H](Cc1cnc[nH]1)NC(=O)[C@H](CCSC)NC(=O)[C@@H](N)CC(=O)O)C(N)=O (HELM PEPTIDE1{D.M.H.D.Q.F.[meF].G.L.M.[am]}$$$$V2.0)
15 | 10% | 18 nM | < 10% | 0.036 nM | CSCC[C@H](NC(=O)[C@H](CC(C)C)NC(=O)CNC(=O)[C@H](Cc1ccccc1)N(C)C(=O)[C@H](Cc1ccccc1)NC(=O)[C@H](CC(N)=O)NC(=O)[C@H](CC(=O)O)NC(=O)[C@H](Cc1cnc[nH]1)NC(=O)[C@H](CCSC)NC(=O)[C@@H](N)CC(=O)O)C(N)=O (HELM PEPTIDE1{D.M.H.D.N.F.[meF].G.L.M.[am]}$$$$V2.0)
16 | 79% | 1.8 nM | < 10% | 0.28 nM | CSCC[C@H](NC(=O)[C@H](CC(C)C)NC(=O)CNC(=O)[C@H](Cc1ccccc1)N(C)C(=O)[C@H](Cc1ccccc1)NC(=O)[C@H](Cc1c[nH]c2ccccc12)NC(=O)[C@H](CC(=O)O)NC(=O)[C@H](Cc1cnc[nH]1)NC(=O)[C@H](CCSC)NC(=O)[C@@H](N)CC(=O)O)C(N)=O (HELM PEPTIDE1{D.M.H.D.W.F.[meF].G.L.M.[am]}$$$$V2.0)
17 | < 10% | 19 nM | < 10% | 0.083 nM | CSCC[C@H](NC(=O)[C@H](CC(C)C)NC(=O)CNC(=O)[C@H](Cc1ccccc1)N(C)C(=O)[C@H](Cc1ccccc1)NC(=O)[C@H](CC(=O)O)NC(=O)[C@H](CC(=O)O)NC(=O)[C@@H]1CCCN1C(=O)[C@H](CC(N)=O)NC(=O)[C@@H]1CCCN1C(=O)[C@@H]1CCC(=O)N1)C(N)=O (HELM PEPTIDE1{[Glp].P.N.P.D.D.F.[meF].G.L.M.[am]}$$$$V2.0)
18 | < 10% | 5.5 nM | < 10% | 0.078 nM | CSCC[C@H](NC(=O)[C@H](CC(C)C)NC(=O)CNC(=O)[C@H](Cc1ccccc1)N(C)C(=O)[C@H](Cc1ccccc1)NC(=O)[C@H](CC(=O)O)NC(=O)[C@H](CC(=O)O)NC(=O)[C@H](CCCCN)NC(=O)[C@H](CO)NC(=O)[C@@H]1CCCN1C(=O)[C@@H]1CCC(=O)N1)C(N)=O (HELM PEPTIDE1{[Glp].P.S.K.D.D.F.[meF].G.L.M.[am]}$$$$V2.0)
